Reference: ChEMBL document CHEMBL4014274, “Oligothiophene compounds inhibit the membrane fusion between H5N1 avian influenza virus and the endosome of host cell” (Eur J Med Chem, 2017)

What was measured:
[1] = Inhibition of Influenza A virus (A/Thailand/Kan353/2004(H5N1)) hemagglutinin expressed in human 293T cells coexpressing NA assessed as reduction in HA mediated viral membrane fusion with MDCK cells pretreated for 30 mins with virus followed by infection in MDCK cells measured after 48 hrs by luciferase reporter gene assay; format: cell-based
[2] = Cytotoxicity against MDCK cells after 2 days by MTT assay; format: cell-based, Canis lupus familiaris; conditions: dog
[3] = Inhibition of Influenza A virus (A/Puerto Rico/8/34(H1N1)) neuraminidase activity infected in MDCK cells assessed as reduction in progeny production using 2-(4-Methylumbelliferyl)-a-D-N-acetylneuraminic acid sodium salt as substrate pretreated for 1 hr with virus followed by 1 hr infection in MDCK cells measured after 48 hrs by fluorescence assay; format: cell-based, Influenza A virus (A/Puerto Rico/8/1934(H1N1))
[4] = system: Influenza A virus (A/Thailand/Kan353/2004(H5N1)); test: Potency index, ratio of CL-385319 IC50 to compound IC50 for inhibition of Influenza A virus (A/Thailand/Kan353/2004(H5N1)) hemagglutinin expressed in human 293T cells coexpressing NA assessed as reduction in HA mediated viral membrane fusion with MDCK cells; format: cell-based
[5] = Influenza A virus, read-out: IC50

Structure (SMILES)	IC50 [1, 5] [µM]	CC50 at 48 h [2] [µM]	IC50 [1]	further results
O=C(NCC(c1cccs1)N1CCCC1)c1cc(F)cc(C(F)(F)F)c1 (stereo not drawn)	6.41	239	–	–
O=C(NCCCc1ccc(-c2ccc(CCCNC(=O)c3cc(O)cc(O)c3)s2)s1)c1cc(O)cc(O)c1	–	–	Not Active	–
[N-]=[N+]=NCCCCc1ccc(-c2ccc(-c3ccc(-c4ccc(CCCCN=[N+]=[N-])s4)s3)s2)s1	–	–	Not Active	–
NCCCCc1ccc(-c2ccc(-c3ccc(-c4cccs4)s3)s2)s1	–	–	Not Active	–
NCCCCc1ccc(-c2ccc(-c3ccc(CCCCN)s3)s2)s1	0.037	13	–	IC50 [3]: 3.29 µM
O=C(NCCCc1ccc(-c2cccs2)s1)c1cc(F)cc(C(F)(F)F)c1	42.1	46.7	–	–
BrCCCc1ccc(-c2ccc(-c3ccc(-c4cccs4)s3)s2)s1	74.1	> 200	–	–
BrCCCCc1ccc(CCCCBr)s1	–	–	Not Active	–
O=C(NCCCc1ccc(-c2ccc(-c3ccc(CCCNC(=O)c4cc(F)cc(C(F)(F)F)c4)s3)s2)s1)c1cc(F)cc(C(F)(F)F)c1	–	–	Not Active	–
NCCCCc1ccc(CCCCN)s1	–	–	Not Active	–
BrCCCc1ccc(-c2ccc(CCCBr)s2)s1	–	–	Not Active	–
BrCCCc1ccc(-c2ccc(-c3cccs3)s2)s1	12.5	35.3	–	–
O=C(NCCCc1ccc(-c2ccc(CCCNC(=O)c3ccccc3Cl)s2)s1)c1ccccc1Cl	–	–	Not Active	–
NCCCc1ccc(-c2ccc(-c3ccc(-c4cccs4)s3)s2)s1	0.171	> 200	–	IC50 [3]: 0.768 µM
O=C(NCCCc1ccc(-c2ccc(-c3cccs3)s2)s1)c1cc(F)cc(C(F)(F)F)c1	–	–	Not Active	–
[N-]=[N+]=NCCCc1ccc(-c2ccc(-c3ccc(-c4cccs4)s3)s2)s1	46.1	> 100	–	–
O=C(NCCCc1ccc(-c2ccc(CCCNC(=O)c3cc(F)cc(C(F)(F)F)c3)s2)s1)c1cc(F)cc(C(F)(F)F)c1	–	–	Not Active	–
O=C(NCCCc1cccs1)c1cc(F)cc(C(F)(F)F)c1	7.24	40.2	–	–
NCCCCc1ccc(-c2ccc(-c3cccs3)s2)s1	0.029	13.3	–	Ratio IC50 [4]: 1000; IC50 [3]: 1.24 µM
NCCCCc1ccc(-c2ccc(-c3ccc(-c4ccc(CCCCN)s4)s3)s2)s1	–	–	Not Active	–
NCCCc1ccc(-c2ccc(-c3cccs3)s2)s1	2.88	18.9	–	IC50 [3]: 1.12 µM

Structure (SMILES)	IC50 [1, 5] [µM]	CC50 at 48 h [2] [µM]	IC50 [1]	further results
[N-]=[N+]=NCCCc1ccc(-c2ccc(-c3cccs3)s2)s1	23	> 200	–	–
O=C(NCCCCc1ccc(CCCCNC(=O)c2cc(F)cc(C(F)(F)F)c2)s1)c1cc(F)cc(C(F)(F)F)c1	–	–	Not Active	–
[N-]=[N+]=NCCCCc1ccc(-c2ccc(-c3ccc(CCCCN=[N+]=[N-])s3)s2)s1	–	–	Not Active	–
[N-]=[N+]=NCCCCc1ccc(-c2ccc(-c3ccc(-c4cccs4)s3)s2)s1	–	–	Not Active	–
[N-]=[N+]=NCCCCc1ccc(-c2ccc(-c3cccs3)s2)s1	11.1	> 200	–	–
NCCCc1ccc(-c2ccc(CCCN)s2)s1	–	–	Not Active	–
O=C(NCCCCc1ccc(-c2cccs2)s1)c1cc(F)cc(C(F)(F)F)c1	19.8	27.4	–	–
NCCCc1ccc(-c2ccc(-c3ccc(CCCN)s3)s2)s1	4.15	> 200	–	–
BrCCCCc1ccc(-c2ccc(-c3cccs3)s2)s1	11.4	23.8	–	–
O=C(NCCc1cccs1)c1cc(F)cc(C(F)(F)F)c1	0.22	–	–	–
BrCCCCc1ccc(-c2ccc(-c3ccc(-c4ccc(CCCCBr)s4)s3)s2)s1	–	–	Not Active	–
NCCCCc1ccc(-c2ccc(CCCCN)s2)s1	0.0819	26.5	–	–
BrCCCCc1ccc(-c2ccc(-c3ccc(CCCCBr)s3)s2)s1	0.696	> 200	–	–
BrCCCCc1ccc(-c2ccc(-c3ccc(-c4cccs4)s3)s2)s1	–	–	Not Active	–
O=C(NCCCCc1ccc(-c2ccc(-c3ccc(CCCCNC(=O)c4cc(F)cc(C(F)(F)F)c4)s3)s2)s1)c1cc(F)cc(C(F)(F)F)c1	–	–	Not Active	–
O=C(NCCCCc1ccc(-c2ccc(CCCCNC(=O)c3cc(F)cc(C(F)(F)F)c3)s2)s1)c1cc(F)cc(C(F)(F)F)c1	–	–	Not Active	–
NCCCCc1ccc(-c2cccs2)s1	–	–	Not Active	–
BrCCCc1ccc(-c2ccc(-c3ccc(CCCBr)s3)s2)s1	6.64	> 200	–	–
O=C(NCCCCc1ccc(-c2ccc(-c3cccs3)s2)s1)c1cc(F)cc(C(F)(F)F)c1	–	–	Not Active	–
O=C(NCCN1CCCCC1)c1cc(F)cc(C(F)(F)F)c1	10.6	1370	–	IC50 [3]: 72 µM
O=C(NCCCCc1cccs1)c1cc(F)cc(C(F)(F)F)c1	4.73	43.5	–	–
